Measured values: PubChem BioAssay (NCI)
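Method: 48-hour compound exposure of cells in 96-well plates, five concentrations, linear interpolation of endpoints. GI50: concentration for 50% inhibition of growth. TGI is the concentration that stops growth completely.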

How the values were obtained:
Assay in all cases: inhibition of tumour cell growth, NCI panel, 48 h
MCF7 breast = test system: MCF7 breast
HL-60(TB) leukemia = test system: HL-60(TB) leukemia
HT29 colon = test system: HT29 colon
CAKI-1 renal = test system: CAKI-1 renal
NCI-H460 lung = test system: NCI-H460 lung
BT-549 breast = test system: BT-549 breast
DU-145 prostate = test system: DU-145 prostate
IGROV1 ovarian = test system: IGROV1 ovarian
SN12C renal = test system: SN12C renal
NCI-H226 lung = test system: NCI-H226 lung
ACHN renal = test system: ACHN renal
SK-OV-3 ovarian = test system: SK-OV-3 ovarian
KM12 colon = test system: KM12 colon
CCRF-CEM leukemia = test system: CCRF-CEM leukemia
OVCAR-3 ovarian = test system: OVCAR-3 ovarian
SF-295 CNS = test system: SF-295 CNS
MDA-MB-231 breast = test system: MDA-MB-231 breast
TK-10 renal = test system: TK-10 renal
HOP-62 NSCLC = test system: HOP-62 NSCLC
HCT-15 colon = test system: HCT-15 colon
MALME-3M melanoma = test system: MALME-3M melanoma
RXF 393 renal = test system: RXF 393 renal
NCI/ADR-RES ovarian = test system: NCI/ADR-RES ovarian
SR leukemia = test system: SR leukemia
MDA-MB-435 = test system: MDA-MB-435
PC-3 prostate = test system: PC-3 prostate
COLO 205 colon = test system: COLO 205 colon
A498 renal = test system: A498 renal
K-562 leukemia = test system: K-562 leukemia
SNB-75 CNS = test system: SNB-75 CNS
SK-MEL-5 melanoma = test system: SK-MEL-5 melanoma
OVCAR-5 ovarian = test system: OVCAR-5 ovarian
SF-539 CNS = test system: SF-539 CNS
M14 melanoma = test system: M14 melanoma
UACC-62 melanoma = test system: UACC-62 melanoma
HOP-92 NSCLC = test system: HOP-92 NSCLC
RPMI-8226 leukemia = test system: RPMI-8226 leukemia
U251 CNS = test system: U251 CNS
MOLT-4 leukemia = test system: MOLT-4 leukemia
A549 NSCLC = test system: A549 NSCLC
SK-MEL-28 melanoma = test system: SK-MEL-28 melanoma
UO-31 renal = test system: UO-31 renal
HCC-2998 colon = test system: HCC-2998 colon
HS 578T breast = test system: HS 578T breast
SK-MEL-2 melanoma = test system: SK-MEL-2 melanoma
LOX IMVI melanoma = test system: LOX IMVI melanoma
UACC-257 melanoma = test system: UACC-257 melanoma
SF-268 CNS = test system: SF-268 CNS
NCI-H522 lung = test system: NCI-H522 lung
786-0 renal = test system: 786-0 renal
OVCAR-8 ovarian = test system: OVCAR-8 ovarian
OVCAR-4 ovarian = test system: OVCAR-4 ovarian
EKVX NSCLC = test system: EKVX NSCLC
SW-620 colon = test system: SW-620 colon
SNB-19 CNS = test system: SNB-19 CNS
T-47D breast = test system: T-47D breast
NCI-H23 lung = test system: NCI-H23 lung
HCT-116 colon = test system: HCT-116 colon

COc1ccc(C2CC(c3cc(Cl)c(C)cc3O)=NN2c2ccc(S(N)(=O)=O)cc2)cc1OC (stereo unspecified)
GI50 (MCF7 breast): 3.07 µM
TGI (MCF7 breast): 13.6 µM
GI50 (HL-60(TB) leukemia): 3.42 µM
TGI (HL-60(TB) leukemia): > 100 µM
GI50 (HT29 colon): 2.24 µM
TGI (HT29 colon): 6.48 µM
GI50 (CAKI-1 renal): 2.78 µM
TGI (CAKI-1 renal): > 100 µM
GI50 (NCI-H460 lung): 2.5 µM
TGI (NCI-H460 lung): 5.85 µM
GI50 (BT-549 breast): 3.03 µM
TGI (BT-549 breast): 13.4 µM
GI50 (DU-145 prostate): 4.49 µM
TGI (DU-145 prostate): 21.7 µM
GI50 (IGROV1 ovarian): 2.34 µM
TGI (IGROV1 ovarian): 5.46 µM
GI50 (SN12C renal): 3.7 µM
TGI (SN12C renal): 30 µM
GI50 (NCI-H226 lung): 5.62 µM
TGI (NCI-H226 lung): 23.1 µM
GI50 (ACHN renal): 3.15 µM
TGI (ACHN renal): 12.2 µM
GI50 (SK-OV-3 ovarian): 4.51 µM
TGI (SK-OV-3 ovarian): 38.3 µM
GI50 (KM12 colon): 3.07 µM
TGI (KM12 colon): 8.77 µM
GI50 (CCRF-CEM leukemia): 5.35 µM
TGI (CCRF-CEM leukemia): > 100 µM
GI50 (OVCAR-3 ovarian): 3.37 µM
TGI (OVCAR-3 ovarian): 9.8 µM
GI50 (SF-295 CNS): 2.7 µM
TGI (SF-295 CNS): 6.24 µM
GI50 (MDA-MB-231 breast): 3.81 µM
TGI (MDA-MB-231 breast): 12.5 µM
GI50 (TK-10 renal): 3.97 µM
TGI (TK-10 renal): 18.4 µM
GI50 (HOP-62 NSCLC): 3.92 µM
TGI (HOP-62 NSCLC): 14.1 µM
GI50 (HCT-15 colon): 3.32 µM
TGI (HCT-15 colon): 20.2 µM
GI50 (MALME-3M melanoma): 3.65 µM
TGI (MALME-3M melanoma): 24.6 µM
GI50 (RXF 393 renal): 2.88 µM
TGI (RXF 393 renal): 7.52 µM
GI50 (NCI/ADR-RES ovarian): 3.39 µM
TGI (NCI/ADR-RES ovarian): 14.1 µM
GI50 (SR leukemia): 2.82 µM
TGI (SR leukemia): > 100 µM
GI50 (MDA-MB-435): 3.97 µM
TGI (MDA-MB-435): 24 µM
GI50 (PC-3 prostate): 2.61 µM
TGI (PC-3 prostate): 13.7 µM
GI50 (COLO 205 colon): 1.93 µM
TGI (COLO 205 colon): 3.41 µM
GI50 (A498 renal): 3.98 µM
TGI (A498 renal): 24.7 µM
GI50 (K-562 leukemia): 3.18 µM
TGI (K-562 leukemia): > 100 µM
GI50 (SNB-75 CNS): 2.7 µM
TGI (SNB-75 CNS): 97.2 µM
GI50 (SK-MEL-5 melanoma): 4.28 µM
TGI (SK-MEL-5 melanoma): 15.2 µM
GI50 (OVCAR-5 ovarian): 2.25 µM
TGI (OVCAR-5 ovarian): 6.36 µM
GI50 (SF-539 CNS): 2.1 µM
TGI (SF-539 CNS): 4.75 µM
GI50 (M14 melanoma): 2.61 µM
TGI (M14 melanoma): 7.2 µM
GI50 (UACC-62 melanoma): 3.13 µM
TGI (UACC-62 melanoma): 12.9 µM
GI50 (HOP-92 NSCLC): 1.81 µM
TGI (HOP-92 NSCLC): 7.42 µM
GI50 (RPMI-8226 leukemia): 4.1 µM
TGI (RPMI-8226 leukemia): > 100 µM
GI50 (U251 CNS): 3.71 µM
TGI (U251 CNS): 14 µM
GI50 (MOLT-4 leukemia): 5.29 µM
TGI (MOLT-4 leukemia): > 100 µM
GI50 (A549 NSCLC): 3.54 µM
TGI (A549 NSCLC): 19.7 µM
GI50 (SK-MEL-28 melanoma): 4.29 µM
TGI (SK-MEL-28 melanoma): 17.7 µM
GI50 (UO-31 renal): 3.3 µM
TGI (UO-31 renal): > 100 µM
GI50 (HCC-2998 colon): 2.72 µM
TGI (HCC-2998 colon): 7.25 µM
GI50 (HS 578T breast): 3.29 µM
TGI (HS 578T breast): 34.3 µM
GI50 (SK-MEL-2 melanoma): 5.87 µM
TGI (SK-MEL-2 melanoma): 32.7 µM
GI50 (LOX IMVI melanoma): 3.35 µM
TGI (LOX IMVI melanoma): 11 µM
GI50 (UACC-257 melanoma): 4.22 µM
TGI (UACC-257 melanoma): 19.7 µM
GI50 (SF-268 CNS): 4.74 µM
TGI (SF-268 CNS): > 100 µM
GI50 (NCI-H522 lung): 2.95 µM
TGI (NCI-H522 lung): 9.61 µM
GI50 (786-0 renal): 2.37 µM
TGI (786-0 renal): 5.04 µM
GI50 (OVCAR-8 ovarian): 3.39 µM
TGI (OVCAR-8 ovarian): 17.9 µM
GI50 (OVCAR-4 ovarian): 4.18 µM
TGI (OVCAR-4 ovarian): > 100 µM
GI50 (EKVX NSCLC): 4.15 µM
TGI (EKVX NSCLC): > 100 µM
GI50 (SW-620 colon): 4.08 µM
TGI (SW-620 colon): 26.6 µM
GI50 (SNB-19 CNS): 5.53 µM
TGI (SNB-19 CNS): 89.3 µM
GI50 (T-47D breast): 3.1 µM
TGI (T-47D breast): 13.3 µM
GI50 (NCI-H23 lung): 3.11 µM
TGI (NCI-H23 lung): 13.6 µM
GI50 (HCT-116 colon): 1.72 µM
TGI (HCT-116 colon): 4.36 µM
